Starred links: 1 amine or outer side, 2 acyl side, 3 side chain; linkers in the order of their positions; H or OH if unused. Positions of bridges follow the written chain, without caps; N, C: chain ends. Non-standard residues stand in square brackets, D forms with d. Residues, ends and D or L forms follow the SMILES beside them. Groups on a side chain read outwards from the residue. *: point of attachment. Phe(3-CH2NH2) = O=C([C@H](Cc1cccc(CN[*:3])c1)N[*:1])[*:2]; X29 = O=C([C@H](Cc1ccc(CC=[*:3])cc1)N[*:1])[*:2]; X32 = O=C(CCc1cccc2c1oc1c(CCN[*:1])cccc12)[*:2]; Trp(5-F) = N[C@@H](Cc1c[nH]c2ccc(F)cc12)C(=O)O; X3 = O=C(CCSCc1cc(F)cc(CSCCN[*:1])c1)[*:2]; Pro(cis-4-F) = O=C(O)[C@@H]1C[C@H](F)CN1; Hag = O=C([C@H](CCC=[*:3])N[*:1])[*:2]; γGlu = O=C(O)[C@H](CCC(=O)[*:2])N[*:1]; mXylylene = c1cc(C[*:1])cc(C[*:2])c1; AEF = NCCOc1ccc(C[C@H](N)C(=O)O)cc1; Palmitoyl = CCCCCCCCCCCCCCCC(=O)*; αMeP = C[C@@]1(C(=O)O)CCCN1; Dap = NC[C@H](N)C(=O)O; AEEA = NCCOCCOCC(=O)O; Piv = CC(C)(C)C(=O)*; AEA = NCCOCC(=O)O; Mpa = O=C(O)CCS
How the values were obtained:
PCSK9 [1] = biological target: T1, PCSK9 (Homo sapiens (Human), UniProt Q8NBP7); test: PCSK9 Alexa FRET Standard assay (displacement of AlexaFluor647 tagged cyclic peptide Reagent A); assay type: binding; settings: 0.5 nM PCSK9, 20 nM AF cyclic peptide Reagent A
Outline: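 TR-FRET displacement: 0.5 nM biotinylated PCSK9 with 1.25 nM Strep-Eu and 20 nM AlexaFluor-tagged cyclic peptide (final) in 50 mM HEPES pH 7.4, 0.15 M NaCl, 5 mM CaCl2, 0.01% BSA, 0.01% P20, ≥2 h at room temperature. IC50 from sigmoidal fit, converted to Ki via peptide KD; falling Eu counts flagged false positives.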

PCSK9 [2] = biological target: T1, PCSK9; test: PCSK9 Alexa FRET Plus assay (displacement of AlexaFluor647 tagged cyclic peptide Reagent B); assay type: binding; settings: 0.5 nM PCSK9, 960 nM AF cyclic peptide Reagent B
Method: A solution containing 1 nM biotinylated PCSK9+2.5 nM Lance Streptavidin Europium (Strep-Eu) was made in 50 mM HEPES pH 7.4, 0.15 M NaCl, 5 mM CaCl2), 0.01% BSA, and 0.01% Surfactant P20. A separate solution containing 1920 nM of the AlexaFluor tagged cyclic peptide was made in the same buffer system. An Echo was used to transfer 0.075 ul of compound plus 0.675 ul of DMSO to each well of an assay plate followed by the addition of 15 ul of PCSK9+Stept-Eu and 15 ul of AF peptide. The final assay volume was 30.750 ul containing 0.5 nM PCSK9, 1.25 nM Strep-Eu, and 960 nM AF cyclic peptide. The reaction was incubated at room temperature for at least two hours prior to fluorescence measurements using an Envision Multilabel Reader. IC50 values were determined by fitting data to a sigmoidal dose-response curve using nonlinear regression. Ki was then calculated from the IC50 and the KD of AF cyclic peptide. Counts (B-counts) of the europium-labeled PCSK9 were followed to observe if compounds were adversely affecting PCSK9. A fall off of the B-counts likely indicated a false positive of inhibition. Data from this procedure was reported as “P=‘numerical value’ (nanomolar)”

[3] = PCSK9 Alexa FRET Standard assay, read-out: IC50
[4] = Alexa FRET Plus, read-out: IC50

T1 sequence (Q8NBP7 153-692): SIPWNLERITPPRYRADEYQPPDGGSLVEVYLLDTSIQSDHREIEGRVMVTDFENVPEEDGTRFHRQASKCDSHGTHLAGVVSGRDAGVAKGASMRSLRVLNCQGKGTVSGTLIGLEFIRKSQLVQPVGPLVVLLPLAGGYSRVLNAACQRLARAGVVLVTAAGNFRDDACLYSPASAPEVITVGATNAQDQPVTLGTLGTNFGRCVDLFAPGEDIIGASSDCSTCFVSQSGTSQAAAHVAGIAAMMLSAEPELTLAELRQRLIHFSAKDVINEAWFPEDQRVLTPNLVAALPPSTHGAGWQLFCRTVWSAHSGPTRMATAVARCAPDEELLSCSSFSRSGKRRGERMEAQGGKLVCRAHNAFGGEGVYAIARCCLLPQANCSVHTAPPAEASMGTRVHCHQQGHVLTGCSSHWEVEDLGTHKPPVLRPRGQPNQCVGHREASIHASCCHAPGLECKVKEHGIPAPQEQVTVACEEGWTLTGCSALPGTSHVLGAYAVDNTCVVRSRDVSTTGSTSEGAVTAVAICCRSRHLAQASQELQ

| Structure (SMILES) | IC50 (PCSK9 [1]; [3]) | IC50 (PCSK9 [2]; [4]) | IC50 (PCSK9 [1]; IC50, PCSK9 Alexa FRET Standard assay) | IC50 (PCSK9 [2]; IC50, Alexa FRET Plus) |
| --- | --- | --- | --- | --- |
| COc1ccc(C[C@@H]2NC(=O)[C@H]([C@@H](C)O)NC(=O)[C@@H]3C[C@H](F)CN3C(=O)[C@H](Cc3c[nH]c4ccc(F)cc34)NC(=O)[C@H](Cc3c[nH]c4ccc(F)cc34)NC(=O)[C@@H](C)NC(=O)[C@H](CCCCN)NC(=O)[C@@H](NC(=O)C(C)(C)C)CC(=O)NCCOc3ccc(cc3)C[C@@H](C(N)=O)NC(=O)[C@]3(C)CCCN3C2=O)cc1 [Compound 119] (Piv-DK[dA][Trp(5-F)][Trp(5-F)][Pro(cis-4-F)]TY(Me)[αMeP][AEF]-NH2; lactam 1-10) | 21000 to 50000 nM | 500 to 5000 nM | – | – |
| CCCCCCCCCCCCCCCC(=O)N[C@@H](CCC(=O)NCCOCCOCCC(=O)NCCOCCOCC(=O)NCCCC[C@H](NC(=O)COCCOCCOCCOCCOCCOCCOCCOCCOCCOCCOCCOCCNC(=O)[C@@H]1CSCc2cccc(c2)CSCCC(=O)N[C@@H](CCCCN)C(=O)N[C@H](C)C(=O)N[C@@H](Cc2c[nH]c3ccc(F)cc23)C(=O)N[C@@H](Cc2c[nH]c3ccc(F)cc23)C(=O)N[C@@H](CC(=O)O)C(=O)N[C@@H](Cc2cnc[nH]2)C(=O)N[C@@H](Cc2ccc(O)cc2)C(=O)N2CCC[C@@]2(C)C(=O)N1)C(N)=O)C(=O)O [Compound 474] | 1000 to 12100 nM | 500 to 5000 nM | – | – |
| CCCCCCCCCCCCCCCC(=O)N[C@@H](CCC(=O)NCCOCCOCC(=O)NCCOCCOCC(=O)NCc1cccc(C[C@@H]2NC(=O)[C@@H](C)NC(=O)[C@H](CCCCN)NC(=O)CCSCc3cccc(c3)CSC[C@@H](C(N)=O)NC(=O)[C@]3(C)CCCN3C(=O)[C@H](Cc3ccc(O)cc3)NC(=O)[C@H](Cc3cnc[nH]3)NC(=O)[C@H](CC(=O)O)NC(=O)[C@H](Cc3c[nH]c4ccc(F)cc34)NC2=O)c1)C(=O)O [Compound 476] ([Mpa]K[dA][Phe(3-CH2NH2)]([AEEA-AEEA-γGlu-Palmitoyl])[Trp(5-F)]DHY[αMeP]C-NH2; linker 1-10 via mXylylene) | 0.11 to 100 nM | 100 to 500 nM | – | – |
| C[C@@]12CCCN1C(=O)[C@H](Cc1ccc(O)cc1)NC(=O)CCc1cccc3c1Oc1c(cccc1-3)CCNC(=O)[C@H](Cc1c[nH]c3ccc(F)cc13)NC(=O)[C@H](Cc1c[nH]c3ccc(F)cc13)NC(=O)CNC(=O)[C@H](CCCCN)NC(=O)CCSCc1cccc(c1)CSC[C@H](C(N)=O)NC2=O [Compound 120] ([Mpa]KG[Trp(5-F)][Trp(5-F)][X32]Y[αMeP][dC]-NH2; linker 1-9 via mXylylene) | 1000 to 12100 nM | 500 to 5000 nM | – | – |
| C[C@@]12CCCN1C(=O)[C@H](Cc1ccc(O)cc1)NC(=O)CN1C(=O)[C@@H](N=C(c3ccccc3)c3ccccc31)NC(=O)[C@H](Cc1c[nH]c3ccc(F)cc13)NC(=O)[C@H](Cc1c[nH]c3ccc(F)cc13)NC(=O)CNC(=O)[C@H](CCCCN)NC(=O)CCSCc1cccc(c1)CSC[C@@H](C(N)=O)NC2=O [Compound 122] | – | – | 0.11 to 100 nM | 0.1 to 100 nM |
| COc1ccc(C[C@@H]2NC(=O)[C@H](Cc3cnc[nH]3)NC(=O)[C@H](CC(=O)O)NC(=O)[C@H](Cc3c[nH]c4ccc(F)cc34)NC(=O)[C@H](Cc3c[nH]c4ccc(F)cc34)NC(=O)[C@@H](C)NC(=O)[C@H](CNC(=O)COCCN)NC(=O)CCSCc3cc(F)cc(c3)CSCCNC(=O)[C@]3(C)CCCN3C2=O)cc1 [Compound 423] (cyclo(DHY(Me)[αMeP][X3][Dap](AEA)[dA][Trp(5-F)][Trp(5-F)])) | 0.11 to 100 nM | 0.1 to 100 nM | – | – |
| COc1ccc(C[C@@H]2NC(=O)[C@H]([C@@H](C)O)NC(=O)[C@@H]3C[C@H](F)CN3C(=O)[C@H](Cc3c[nH]c4ccc(F)cc34)NC(=O)[C@H](Cc3c[nH]c4ccc(F)cc34)NC(=O)[C@@H](C)NC(=O)[C@H](CCCCN)NC(=O)[C@@H](NC(C)=O)CC/C=C/Cc3ccc(cc3)C[C@@H](C(N)=O)NC(=O)[C@]3(C)CCCN3C2=O)cc1 [Compound 138] (Ac-[Hag]K[dA][Trp(5-F)][Trp(5-F)][Pro(cis-4-F)]TY(Me)[αMeP][X29]-NH2; staple (E) 1-10) | 100 to 1000 nM | 500 to 5000 nM | – | – |

Reference: patent US11530244B2, “Cyclic polypeptides for PCSK9 inhibition” (priority 2018, dated 2022)
